Measured values as given in patent publication US10406097B2, “Extract of Arthrobacter agilis for use in particular in cosmetics” (priority 2013, dated 2019).

Test system: Normal human keratinocytes (NHK)
Assay: Carbonylation test (OxyELISA) after UV/visible irradiation
Type: cell-based
Details: SBE 200 nM; Tocopherol acetate 20 μM; 2 hours contact; 120 kJ/m^2; P-value <0.01
Experimental: By following the same UV/visible irradiation protocol as the one used above for the comet assay, the rate of carbonylation of keratinocytes in the presence of SBE and tocopherol acetate was measured.
• Normal human keratinocytes (NHK) (T6)-10^6 cells/condition • Conditions: • 1% THF solvent control • SBE 200 nM • Tocopherol acetate 20 μM • Each condition is carried out in triplicate. • Contact with KHNs in different experimental conditions for 2 hours. • UVB/UVA/Visible irradiation at 120 kJ/m^2 of the cells placed in PBS by a Suntest CPS+ solar simulator (Atlas Material Testing Technology) at 4° C. Negative controls are maintained at 4° C. for the same duration as the irradiation. • Trypsination of the cells post irradiation. Rinsing of the iced PBS. Elimination of the PBS and immediate freezing of the cell pellets at −80° C. 2—Measurement of the Carbonylation • The proteins are extracted after lysis of the cells and their concentration is measured using the Bradford test. • The proteins are derived by 2,4-dinitrophenylhydrazine (DNPH), which binds to the carbonyl groups. • The carbonylation rate is then measured on ELISA plates (OxyELISA™ Oxidized Protein Quantitation Kit, Millipore) at 450 nm. Results

CC(=O)Oc1c(C)c(C)c2c(c1C)CCC(C)(CCC[C@H](C)CCC[C@H](C)CCCC(C)C)O2 (stereo partly shown) [tocopherol acetate]
increase of the rate of carbonylation of keratinocyte proteins after UV/visible irradiation: decreases significantly
